Test results as given in PubChem BioAssay (NCI).
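1) Cells in 96-well plates. 2) Compound, 48 h, 5 concentrations. 3) Linear interpolation between surrounding doses. 4) Unreached endpoint = highest concentration. The concentration for 50% growth inhibition is given as GI50. TGI is the concentration that stops growth completely.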

What was measured:
Test in all cases: growth of human tumour cells (NCI), 48 h
[1] = system: SK-OV-3 ovarian
[2] = system: OVCAR-5 ovarian
[3] = system: SF-539 CNS
[4] = system: 786-0 renal
[5] = system: UACC-62 melanoma
[6] = system: LOX IMVI melanoma
[7] = system: NCI/ADR-RES ovarian
[8] = system: NCI-H226 lung
[9] = system: K-562 leukemia
[10] = system: SNB-75 CNS
[11] = system: SW-620 colon
[12] = system: SK-MEL-2 melanoma
[13] = system: MOLT-4 leukemia
[14] = system: IGROV1 ovarian
[15] = system: HT29 colon
[16] = system: A549 NSCLC
[17] = system: CCRF-CEM leukemia
[18] = system: TK-10 renal
[19] = system: CAKI-1 renal
[20] = system: UO-31 renal
[21] = system: KM12 colon
[22] = system: ACHN renal
[23] = system: A498 renal
[24] = system: MALME-3M melanoma
[25] = system: SF-268 CNS
[26] = system: SN12C renal
[27] = system: UACC-257 melanoma
[28] = system: T-47D breast
[29] = system: HCC-2998 colon
[30] = system: OVCAR-3 ovarian
[31] = system: EKVX NSCLC
[32] = system: SR leukemia
[33] = system: COLO 205 colon
[34] = system: RPMI-8226 leukemia
[35] = system: MDA-MB-231 breast
[36] = system: BT-549 breast
[37] = system: HCT-116 colon
[38] = system: NCI-H23 lung
[39] = system: DU-145 prostate
[40] = system: OVCAR-4 ovarian
[41] = system: HOP-92 NSCLC
[42] = system: U251 CNS
[43] = system: NCI-H460 lung
[44] = system: PC-3 prostate
[45] = system: HS 578T breast
[46] = system: HOP-62 NSCLC
[47] = system: SK-MEL-5 melanoma
[48] = system: SNB-19 CNS
[49] = system: SF-295 CNS
[50] = system: OVCAR-8 ovarian
[51] = system: RXF 393 renal
[52] = system: NCI-H522 lung
[53] = system: MCF7 breast
[54] = system: HCT-15 colon
[55] = system: SK-MEL-28 melanoma
[56] = system: HL-60(TB) leukemia
[57] = system: MDA-MB-435
[58] = system: M14 melanoma

## COc1ccc(C(=O)c2cc(C)c(OC)c(C)c2)c(OC)c1O
[1]
  GI50: 0.228 µM
  TGI: > 100 µM
[2]
  GI50: 4.9 µM
  TGI: > 100 µM
[3]
  GI50: 0.0206 µM
  TGI: 0.0532 µM
[4]
  GI50: 0.667 µM
  TGI: > 100 µM
[5]
  GI50: 0.638 µM
  TGI: > 100 µM
[6]
  GI50: 0.0381 µM
  TGI: > 100 µM
[7]
  GI50: 0.0257 µM
[8]
  GI50: 2.71 µM
  TGI: 9.06 µM
[9]
  GI50: 0.0236 µM
  TGI: > 100 µM
[10]
  GI50: 0.026 µM
  TGI: > 100 µM
[11]
  GI50: 0.0366 µM
  TGI: > 100 µM
[12]
  GI50: 0.211 µM
  TGI: > 100 µM
[13]
  GI50: 0.0448 µM
  TGI: > 100 µM
[14]
  GI50: 0.672 µM
  TGI: > 100 µM
[15]
  GI50: 3.73 µM
  TGI: > 55.6 µM
[16]
  GI50: 0.32 µM
  TGI: > 100 µM
[17]
  GI50: 0.0323 µM
  TGI: > 100 µM
[18]
  GI50: 25 µM
  TGI: > 100 µM
[19]
  GI50: 0.185 µM
  TGI: > 100 µM
[20]
  GI50: 0.0695 µM
  TGI: > 54 µM
[21]
  GI50: < 0.017 µM
  TGI: > 100 µM
[22]
  GI50: 0.0566 µM
  TGI: > 100 µM
[23]
  GI50: 1.84 µM
  TGI: 6.03 µM
[24]
  GI50: 0.0739 µM
  TGI: > 100 µM
[25]
  GI50: 0.207 µM
  TGI: > 100 µM
[26]
  GI50: 0.0786 µM
  TGI: > 100 µM
[27]
  GI50: 32.9 µM
  TGI: > 100 µM
[28]
  GI50: 5.95 µM
  TGI: > 100 µM
[29]
  GI50: 0.127 µM
  TGI: > 27.4 µM
[30]
  GI50: 0.0374 µM
[31]
  GI50: 0.238 µM
  TGI: > 100 µM
[32]
  TGI: > 100 µM
[33]
  GI50: 7.77 µM
  TGI: 28.4 µM
[34]
  GI50: 0.0463 µM
  TGI: > 62.6 µM
[35]
  GI50: 0.0587 µM
  TGI: > 100 µM
[36]
  GI50: 0.0272 µM
  TGI: > 62 µM
[37]
  GI50: 0.103 µM
  TGI: > 100 µM
[38]
  GI50: 0.0879 µM
  TGI: > 100 µM
[39]
  GI50: 0.0369 µM
  TGI: > 100 µM
[40]
  GI50: 0.415 µM
  TGI: > 100 µM
[41]
  GI50: 0.247 µM
  TGI: > 100 µM
[42]
  GI50: 0.0485 µM
  TGI: > 100 µM
[43]
  GI50: 0.0713 µM
  TGI: 1.35 µM
[44]
  GI50: 0.0402 µM
  TGI: > 100 µM
[45]
  GI50: 0.0274 µM
  TGI: > 100 µM
[46]
  GI50: 0.19 µM
  TGI: > 100 µM
[47]
  GI50: 0.0552 µM
  TGI: 0.292 µM
[48]
  GI50: 0.0332 µM
  TGI: > 100 µM
[49]
  GI50: 0.0396 µM
  TGI: > 100 µM
[50]
  GI50: 0.0459 µM
  TGI: > 100 µM
[51]
  GI50: 0.163 µM
  TGI: > 100 µM
[52]
  GI50: < 0.0189 µM
[53]
  GI50: 0.235 µM
  TGI: > 100 µM
[54]
  GI50: 0.0214 µM
  TGI: > 100 µM
[55]
  GI50: 1.42 µM
  TGI: > 100 µM
[56]
  GI50: 0.0276 µM
  TGI: 0.0876 µM

## NNC(=O)c1c(SCc2ccccc2)nc2c3ccccc3ccn12
[1]
  TGI: > 100 µM
[2]
  TGI: 54.8 µM
[3]
  TGI: > 100 µM
[5]
  TGI: 29.6 µM
[7]
  TGI: > 100 µM
[8]
  TGI: > 100 µM
[9]
  TGI: 57.9 µM
[11]
  TGI: > 100 µM
[57]
  TGI: > 100 µM
[12]
  TGI: > 100 µM
[13]
  TGI: 41.3 µM
[14]
  TGI: 51.2 µM
[15]
  TGI: 35.3 µM
[16]
  TGI: 70.3 µM
[17]
  TGI: 22.1 µM
[18]
  TGI: > 100 µM
[19]
  TGI: 87.9 µM
[20]
  TGI: 66.5 µM
[21]
  TGI: > 100 µM
[22]
  TGI: > 100 µM
[23]
  TGI: 46.6 µM
[25]
  TGI: > 100 µM
[26]
  TGI: > 100 µM
[27]
  TGI: > 100 µM
[58]
  TGI: 41.2 µM
[28]
  TGI: 72.1 µM
[29]
  TGI: > 100 µM
[30]
  TGI: 16 µM
[31]
  TGI: > 100 µM
[33]
  TGI: > 100 µM
[35]
  TGI: 87.9 µM
[36]
  TGI: 70.2 µM
[38]
  TGI: 52.6 µM
[39]
  TGI: > 100 µM
[40]
  TGI: 68.6 µM
[41]
  TGI: 68.5 µM
[42]
  TGI: > 100 µM
[43]
  TGI: 28 µM
[44]
  TGI: > 100 µM
[45]
  TGI: > 100 µM
[46]
  TGI: > 100 µM
[47]
  TGI: 28.3 µM
[48]
  TGI: > 100 µM
[49]
  TGI: > 100 µM
[50]
  TGI: > 100 µM
[51]
  TGI: 93.4 µM
[52]
  TGI: 37.3 µM
[53]
  TGI: > 100 µM
[54]
  TGI: 41.2 µM
[55]
  TGI: > 100 µM
[56]
  TGI: 29.4 µM

## Cc1ccc([N+](=O)[O-])c2c(NCCC[N+](C)(C)[O-])c3ccccc3nc12
[1]
  TGI: > 100 µM
[2]
  TGI: 10.2 µM
[3]
  TGI: 9.76 µM
[4]
  TGI: 6.72 µM
[5]
  TGI: 3.4 µM
[6]
  TGI: 9.2 µM
[7]
  TGI: > 100 µM
[8]
  TGI: 5.17 µM
[9]
  TGI: > 38.3 µM
[10]
  TGI: 2.49 µM
[11]
  TGI: > 72.6 µM
[57]
  TGI: 5.15 µM
[12]
  TGI: 2.25 µM
[14]
  TGI: > 23.9 µM
[15]
  TGI: 5.26 µM
[16]
  TGI: 6.29 µM
[17]
  TGI: > 30.8 µM
[18]
  TGI: 80.5 µM
[19]
  TGI: 97 µM
[20]
  TGI: 42.6 µM
[21]
  TGI: > 21.1 µM
[22]
  TGI: 47.7 µM
[23]
  TGI: 4.84 µM
[24]
  TGI: 2.78 µM
[25]
  TGI: 24.9 µM
[26]
  TGI: 8.74 µM
[27]
  TGI: 6.11 µM
[58]
  TGI: 7.42 µM
[28]
  TGI: 7 µM
[29]
  TGI: 2.55 µM
[30]
  TGI: > 41.3 µM
[31]
  TGI: 3.88 µM
[33]
  TGI: 2.56 µM
[35]
  TGI: 6.28 µM
[36]
  TGI: 4.81 µM
[37]
  TGI: 5 µM
[38]
  TGI: 3.41 µM
[39]
  TGI: 8.19 µM
[40]
  TGI: 21.2 µM
[41]
  TGI: 5.04 µM
[42]
  TGI: 7.32 µM
[43]
  TGI: 5.14 µM
[44]
  TGI: 4.41 µM
[45]
  TGI: 21.7 µM
[46]
  TGI: > 41.1 µM
[47]
  TGI: 2.46 µM
[48]
  TGI: 6.56 µM
[49]
  TGI: > 100 µM
[50]
  TGI: 49.1 µM
[51]
  TGI: 3.02 µM
[53]
  TGI: 7.66 µM
[54]
  TGI: 33 µM
[55]
  TGI: 17 µM
[56]
  TGI: 34.5 µM
